Source: ChEMBL document CHEMBL4665775, “Half-life extension of peptidic APJ agonists by N-terminal lipid conjugation” (Bioorg Med Chem Lett, 2020)
Active and inactive are the calls of the source. The calls are words filed in the database; no cut-off is given here.

Columns and labels:
Rattus norvegicus [1] = assay: Positive […] activity in anesthetized Lewis rat model of myocardial infarction assessed as plasma concentration for maximal pharmacodynamic effect at 1 mg/kg/min, iv administered as continuous infusion for 20 mins; format: functional
Rattus norvegicus [2] = assay: Positive […] activity in anesthetized Lewis rat model of myocardial infarction assessed as increase in ejection fraction at 1 mg/kg/min, iv administered as continuous infusion for 20 mins; format: functional
[3] = Unbound Cmax in rat at 0.5 mg/kg, sc at 15 mins; format: ADME, organism-based; details: in vivo, 0.25 h
[4] = Terminal half life in rat at 0.1 mg/kg, iv for 30 mins; format: ADME, organism-based; details: in vivo, read-out: beta t1/2
Rattus norvegicus [5] = assay: Positive […] activity in anesthetized Lewis rat model of myocardial infarction assessed as increase in ejection fraction at 3.7 ug/kg/min, iv administered as infusion for 30 mins; format: functional, organism-based; details: dose 3.7 µg/kg/min
Rattus norvegicus [6] = assay: Agonist activity at APJ receptor in anesthetized Lewis rat model of myocardial infarction assessed as target coverage at 3.7 ug/kg/min, iv administered as continuous infusion for 30 mins; format: functional, organism-based; details: dose 3.7 µg/kg/min
[7] = Agonist activity at APJ receptor in anesthetized Lewis rat model of myocardial infarction assessed as target coverage at 30 ug/kg/min iv administered as continuous infusion for 30 mins relative to control; format: functional; details: dose 30 µg/kg/min, 0.5 h
[8] = Agonist activity at APJ receptor in anesthetized Lewis rat model of myocardial infarction assessed as target coverage at 10 ug/kg/min iv administered as continuous infusion for 30 mins relative to control; format: functional; details: dose 10 µg/kg/min, 0.5 h
[9] = Unbound fraction in anesthetized Lewis rat myocardial infarction model plasma assessed as free plasma concentration at 30 ug/kg/min, iv administered as continuous infusion for 30 mins; format: ADME, organism-based; details: in vivo, 0.03 mg/kg, 0.5 h, dose 30 µg/kg/min
[10] = Unbound fraction in anesthetized Lewis rat myocardial infarction model plasma assessed as free plasma concentration at 10 ug/kg/min, iv administered as continuous infusion for 30 mins; format: ADME, organism-based; details: in vivo, 0.01 mg/kg, 0.5 h, dose 10 µg/kg/min
[11] = Unbound fraction in anesthetized Lewis rat myocardial infarction model plasma assessed as free plasma concentration at 3.7 ug/kg/min, iv administered as continuous infusion for 30 mins; format: ADME, organism-based; details: in vivo, 0.0037 mg/kg, 0.5 h, dose 3.7 µg/kg/min
Rattus norvegicus [12] = assay: Positive […] activity in anesthetized Lewis rat model of myocardial infarction assessed as increase in ejection fraction at 30 ug/kg/min, iv administered as infusion for 30 mins; format: functional; details: dose 30 µg/kg/min, 0.5 h
Rattus norvegicus [13] = assay: Positive […] activity in anesthetized Lewis rat model of myocardial infarction assessed as increase in ejection fraction at 10 ug/kg/min, iv administered as continuous infusion for 30 mins; format: functional; details: dose 10 µg/kg/min, 0.5 h
Apelin receptor = target: T1, Apelin receptor (Rattus norvegicus, UniProt Q9JHG3); assay: Agonist activity at rat APJ receptor stably expressed in CHO cell membranes in presence of [35S]GTPgammaS by scintillation proximity assay; format: functional
T1 sequence (Q9JHG3 whole entry): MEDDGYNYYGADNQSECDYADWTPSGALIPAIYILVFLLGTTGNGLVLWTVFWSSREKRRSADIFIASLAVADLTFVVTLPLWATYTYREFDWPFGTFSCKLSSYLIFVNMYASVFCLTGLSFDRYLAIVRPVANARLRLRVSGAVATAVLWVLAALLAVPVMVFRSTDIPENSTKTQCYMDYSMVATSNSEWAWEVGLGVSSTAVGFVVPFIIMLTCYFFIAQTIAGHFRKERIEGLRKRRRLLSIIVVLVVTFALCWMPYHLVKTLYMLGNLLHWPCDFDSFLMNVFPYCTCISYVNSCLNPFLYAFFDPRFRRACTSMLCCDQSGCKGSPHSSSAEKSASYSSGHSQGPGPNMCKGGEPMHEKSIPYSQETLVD

[14] = Stability in rat plasma assessed as compound remaining at 4 hrs; format: ADME, cell-free; details: read-out: Stabilty
[15] = Stability in rat liver S9 fraction assessed as compound remaining at 4 hrs; format: ADME, subcellular; details: read-out: Stabilty
[16] = Stability in rat Kidney S9 fraction assessed as compound remaining at 4 hrs; format: ADME, subcellular; details: read-out: Stabilty
[17] = Plasma protein binding in rat assessed as unbound fraction by LC-MS/MS analysis; format: ADME, cell-free

Row | fCmax [3] | half-life [4] | Activity (Rattus norvegicus [6]) | Cp(f) [9] | Cp(f) [10] | Cp(f) [11] | EC50 (Apelin receptor) | remaining at 4 h [14] | remaining at 4 h [15] | remaining at 4 h [16] | fraction unbound [17] | SMILES | MPE (Rattus norvegicus [1]) | Activity (Rattus norvegicus [2]) | Activity (Rattus norvegicus [5]) | fold change (FC) [7] | fold change (FC) [8] | Activity (Rattus norvegicus [12]) | Activity (Rattus norvegicus [13])
1 | – | – | – | – | – | – | – | – | – | – | – | CSCC[C@H](NC(=O)[C@@H]1CCCN1C(=O)CNC(=O)[C@H](CCCCN)NC(=O)[C@H](Cc1cnc[nH]1)NC(=O)[C@H](CO)NC(=O)[C@H](CC(C)C)NC(=O)[C@H](CCCNC(=N)N)NC(=O)[C@@H]1CCCN1C(=O)[C@H](CCCNC(=N)N)NC(=O)[C@@H]1CCC(=O)N1)C(=O)N1CCC[C@H]1C(=O)N[C@@H](Cc1ccccc1)C(=O)O | 16.4 µM | 16.6% | – | – | – | – | –
2 | 0.3 nM | 4.3 min | inactive | 29 nM | 12 nM | 3 nM | 4.6 nM | 51% | > 90% | 82% | 0.011 | CCCCCCCCCCCCC(=O)N[C@@H](CCC(=O)NCCOCCOCC(=O)NCCOCCOCC(=O)N[C@@H](CCC(N)=O)C(=O)N[C@@H](CCCNC(=N)N)C(=O)N1CCC[C@H]1C(=O)N[C@@H](CCCNC(=N)N)C(=O)N[C@@H](CC(C)C)C(=O)N[C@@H](CO)C(=O)N[C@@H](Cc1c[nH]cn1)C(=O)N[C@@H](CCCCN)C(=O)NCC(=O)N1CCC[C@H]1C(=O)N[C@@H](CCSC)C(=O)N1CCC[C@H]1C(=O)N[C@@H](Cc1ccccc1)C(=O)O)C(=O)O | – | – | inactive | 6.3 | 2.7 | 6.1% | 22.8%
